Laboratory results reported in patent US20100204224A1, “AZACYCLIC COMPOUNDS AS INHIBITORS OF SENSORY NEURONE SPECIFIC SODIUM CHANNELS” (priority 2005, published 2010).
Like-named read-outs stand apart in the source and are kept apart here.

Molecular target: T1, human Nav1.8 (hNav1.8) ion channel (Homo sapiens, UniProt Q9Y5Y9)
T1 construct: expressed in transfected cells
Assay: Inhibition of human Nav1.8 stably expressed in SH-SY-5Y cells (membrane potential dye fluorescence assay)
Type: cell-based
Details: FLIPR membrane potential dye, 10 μM pyrethroid, 250 nM TTX, test concentration range 100 μM-0.05 μM

[1] = SH-SY-5Y hNav1.8 cells, read-out: hNav1.8 IC50

T1 sequence (Q9Y5Y9 whole entry): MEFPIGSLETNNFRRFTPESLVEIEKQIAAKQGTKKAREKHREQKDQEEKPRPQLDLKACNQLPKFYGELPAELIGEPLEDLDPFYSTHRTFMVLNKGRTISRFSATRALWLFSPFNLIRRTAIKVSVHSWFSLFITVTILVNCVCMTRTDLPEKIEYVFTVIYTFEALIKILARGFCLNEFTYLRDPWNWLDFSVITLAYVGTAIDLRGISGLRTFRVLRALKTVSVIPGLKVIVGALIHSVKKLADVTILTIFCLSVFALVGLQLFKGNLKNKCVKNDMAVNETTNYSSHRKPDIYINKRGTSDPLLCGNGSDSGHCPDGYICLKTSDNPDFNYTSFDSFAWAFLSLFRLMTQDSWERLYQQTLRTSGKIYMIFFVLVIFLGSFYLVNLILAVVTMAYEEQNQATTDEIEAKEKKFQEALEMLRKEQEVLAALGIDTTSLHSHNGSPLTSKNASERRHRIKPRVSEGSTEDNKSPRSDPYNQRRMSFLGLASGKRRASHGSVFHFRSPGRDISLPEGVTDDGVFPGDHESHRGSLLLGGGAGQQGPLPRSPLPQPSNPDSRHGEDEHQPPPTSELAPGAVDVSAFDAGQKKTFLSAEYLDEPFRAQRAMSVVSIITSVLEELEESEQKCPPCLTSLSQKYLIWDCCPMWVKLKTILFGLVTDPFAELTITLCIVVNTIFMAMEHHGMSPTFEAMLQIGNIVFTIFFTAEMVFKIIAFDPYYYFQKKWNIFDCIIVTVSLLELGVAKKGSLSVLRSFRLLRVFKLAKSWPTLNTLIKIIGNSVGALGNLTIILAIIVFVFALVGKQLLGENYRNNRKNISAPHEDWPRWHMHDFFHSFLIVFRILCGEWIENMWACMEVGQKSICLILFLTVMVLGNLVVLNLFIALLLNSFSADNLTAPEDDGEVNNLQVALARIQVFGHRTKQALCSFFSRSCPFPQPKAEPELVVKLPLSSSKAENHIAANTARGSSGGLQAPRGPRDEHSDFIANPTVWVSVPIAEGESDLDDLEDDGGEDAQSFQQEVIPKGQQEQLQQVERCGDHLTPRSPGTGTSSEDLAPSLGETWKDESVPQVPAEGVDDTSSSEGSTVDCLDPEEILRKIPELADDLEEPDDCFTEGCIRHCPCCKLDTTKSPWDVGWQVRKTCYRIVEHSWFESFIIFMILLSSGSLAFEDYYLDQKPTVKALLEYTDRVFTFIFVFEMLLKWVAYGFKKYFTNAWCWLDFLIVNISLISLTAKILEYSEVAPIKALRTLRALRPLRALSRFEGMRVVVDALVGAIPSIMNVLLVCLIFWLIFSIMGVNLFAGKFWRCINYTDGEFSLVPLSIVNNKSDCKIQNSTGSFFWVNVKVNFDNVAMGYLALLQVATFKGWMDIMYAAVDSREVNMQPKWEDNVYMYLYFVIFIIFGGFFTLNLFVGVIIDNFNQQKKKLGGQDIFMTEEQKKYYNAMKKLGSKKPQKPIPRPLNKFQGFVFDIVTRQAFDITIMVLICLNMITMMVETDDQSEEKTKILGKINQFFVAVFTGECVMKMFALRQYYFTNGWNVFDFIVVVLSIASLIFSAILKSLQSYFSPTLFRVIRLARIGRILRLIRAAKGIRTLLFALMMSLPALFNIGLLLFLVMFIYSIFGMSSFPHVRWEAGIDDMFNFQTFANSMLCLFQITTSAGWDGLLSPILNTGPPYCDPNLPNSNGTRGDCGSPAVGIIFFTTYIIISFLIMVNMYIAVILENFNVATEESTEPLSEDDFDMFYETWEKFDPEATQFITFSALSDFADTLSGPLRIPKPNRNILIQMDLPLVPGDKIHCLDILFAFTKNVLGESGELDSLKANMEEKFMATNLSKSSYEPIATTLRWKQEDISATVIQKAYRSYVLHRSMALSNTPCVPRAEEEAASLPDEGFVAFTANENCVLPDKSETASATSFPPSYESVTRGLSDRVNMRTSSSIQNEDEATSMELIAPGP

SMILES | IC50 (hNav1.8 IC50, SH-SY-5Y hNav1.8 cells) [nM] | IC50 [1] [nM]
Cc1ccccc1C(C)N1CC2CC1CN2C(=O)Cc1ccc(Oc2cccc(F)c2)cc1 (stereo not drawn) [Example 172, 2-[4-(3-Fluoro-phenoxy)-phenyl]-1-[5-(1-o-tolyl-ethyl)-2,5-diaza-bicyclo[2.2.1]hept-2-yl]-ethanone] | 710 | –
O=C(Nc1ccc(C(F)(F)F)cc1)N1CC2CC1CN2C1CCc2cc(F)ccc2C1 (stereo not drawn) [Example 100, 5-(6-Fluoro-1,2,3,4-tetrahydro-naphthalen-2-yl)-2,5-diaza-bicyclo[2.2.1]heptane-2-carboxylic acid (4-trifluoromethyl-phenyl)-amide] | – | 640
O=C(Nc1ccc(C(F)(F)F)cc1)N1CC2CC1CN2C1Cc2ccccc2C1 (stereo not drawn) [Example 99, 5-Indan-2-yl-2,5-diaza-bicyclo[2.2.1]heptane-2-carboxylic acid (4-trifluoromethyl-phenyl)-amide] | – | 2380
